Results on three compounds are retold here after article PMC4775916 (Antimicrobial Agents and Chemotherapy, 2016).

Broadly, the Km is the substrate concentration at which the rate is half of its maximum. A word on the IC50: it is the concentration at which inhibition is half-maximal.

Values joined by “and” are separate entries in the source; they are usually repeats but may differ in a detail not shown here. Equal entries are not always repeated.

Assay [1] concerns the target T1, VIM-1 (Pseudomonas aeruginosa, UniProt A0A0F7KYQ8).
T1 construct: The N- and C- terminal residues of the mature enzymes are labelled 26; made in house
Briefly: Steady-state kinetics of β-lactam substrate hydrolysis. In kind it is biochemical. As to conditions: C-terminally His6-tagged VIM-1; 50 mM HEPES pH 7.2; apparent for ampicillin and ceftazidime. On the procedure: (§1) The hydrolysis of a representative panel of β-lactam substrates was monitored at their respective absorbance wavelengths. The wavelengths and extinction coefficients used were previously described ([34]). The assays were carried out using 50 mM HEPES buffer (pH 7.2) supplemented with 1 μg/ml bovine serum albumin (BSA), 1 μM ZnSO4, and 0.01% Triton X-100. In the case of VIM-1, C-terminally His6-tagged VIM-1 was used for kinetic analyses. Note that no differences were observed between the activities of untagged VIM-1 and C-terminally His6-tagged VIM-1 for the selected antibiotics (data not shown). The initial rates were obtained from the changes in absorbance at various substrate concentrations. Steady-state kinetic parameters (Km and kcat) were determined by fitting the initial velocity data to the Michaelis-Menten equation using GraphPad Prism 5.01 software (see Table S4 in the supplemental material).

In assay [2] the target is T2, VIM-38 (Pseudomonas aeruginosa, UniProt A0A0F7KYQ8, A128K/A265V/E202A/H201L/K257T/S205R).
T2 construct: The N- and C- terminal residues of the mature enzymes are labelled 26; His6 with HRV3C cleavage site (pET-28a) (N, cleaved yes); made in house; host or cells: E. coli BL21(DE3)
The description is as above. Particulars: 50 mM HEPES pH 7.2, apparent for ampicillin and ceftazidime. In kind it is biochemical. On the procedure: as §1

The target of assay [3] is T3, VIM-5 (Pseudomonas aeruginosa, UniProt A0A0F7KYQ8, A128K/E202A/H201L/K257T/S205R).
T3 construct: His6 with HRV3C cleavage site (pET-28a) (N, cleaved yes); made in house; host or cells: E. coli BL21(DE3)
The assay is described as above. In kind it is biochemical. As to conditions: 50 mM HEPES pH 7.2, apparent for ampicillin and ceftazidime. As to the method: as §1

Assay [4] concerns VIM-2. In kind it is biochemical. Particulars: VIM-2 versus VIM-1. On the procedure:
as §1

The target of assay [5] is T1, VIM-1. As to conditions: previous studies ref Franceschini et al. (4), cited from earlier work.
The subject of assay [6] is VIM-2. The arrangement: method as in Poirel et al. (5). Particulars: previous studies ref Poirel et al. (5), cited from earlier work.
In assay [7] the test system is VIM-5. Set-up: method as in Garcar et al. (6). As to conditions: previous studies ref Garcar et al. (6), cited from earlier work.
Assay [8] has as its target T1, VIM-1. As to the kind of experiment: Inhibition of enzyme-mediated nitrocefin hydrolysis. In kind it is biochemical. As to conditions: read-out: IC50 VIM-1 (H224, S228). On the procedure: (§2) Inhibitors were prepared as reported previously ([36], [41]). Enzyme-mediated hydrolysis of nitrocefin was monitored by determining the changes in absorbance at 495 nm, as previously described ([36], [37]). Residual activities were first determined at a 100 μM inhibitor concentration. […] The residual activities were obtained at increasing inhibitor concentrations (0.2 to 2,000 μM); the data were analyzed using GraphPad Prism 5.01 software.

The target of assay [9] is T4, VIM-2 (Escherichia coli, UniProt Q5U7L7).
T4 construct: His6 (N, cleaved yes); made in house
The assay is described as above. In kind it is biochemical. As to conditions: read-out: IC50 VIM-2 (Y224, R228). As to the method: as §2

In assay [10] the test system is VIM-2. The description is as above. In kind it is biochemical. As to conditions: VIM-2 versus VIM-5 and VIM-38. On the procedure: as §2
Assay [11] deals with T2, VIM-38. The assay is described as above. In kind it is biochemical. As to the method:
as §2

In assay [12] the test system is VIM-38. The description is as above. In kind it is biochemical. As to conditions: VIM-38 versus VIM-1. As to the method: as §2
The next assay has as its target T5, VIM-4 (Pseudomonas aeruginosa, UniProt A0A0F7KYQ8, S205R).
T5 construct: His6 (N, cleaved yes); made in house
The description is as above. In kind it is biochemical. Particulars: for IC50: read-out: IC50 VIM-4 (H224, R228). On the procedure:
as §2

The target in assay [13] is T3, VIM-5. The description is as above. In kind it is biochemical. On the procedure:
as §2

Assay [14] deals with VIM-5. Described as above. In kind it is biochemical. As to conditions: VIM-5 versus VIM-1. As to the method:
as §2

Assay [15] has as its target T4, VIM-2. Briefly: 1H CPMG NMR binding assay (thiomandelic acid reporter ligand displacement). Particulars: 50 μM thiomandelic acid, 50 μM enzyme, 50 mM Tris-D11 pH 7.5, read-out: KD app VIM-2. As to the method: (§3) Binding assays were carried out using ^1H-edited Carr-Purcell-Meiboom-Gill (CPMG) nuclear magnetic resonance (NMR) analyses. Spectra were recorded by using a Bruker AVIII 600-MHz NMR spectrometer equipped with a BB-F/^1H Prodigy N2 cryoprobe using 3-mm Match NMR tubes (Cortectnet). The PROJECT-CPMG sequence (90°x-[τ-180°y-τ-90°y-τ-180°y-τ]n-acq) was applied, and water suppression was achieved by presaturation. […] Assays were conducted using 50 mM Tris-D11 (pH 7.5) supplemented with 0.02% NaN3 in 90% H2O and 10% D2O. Equilibrium dissociation constant (KD) measurements for the reporter ligand (50 μM thiomandelic acid) and inhibitors (0 to 300 μM) were carried out as previously reported ([43]). Data were processed with Bruker 3.1 software and fitted by using Origin Pro8.5.1 (see Table S5 in the supplemental material).
(§4) *Apparent kinetic parameters were reported for ampicillin and ceftazidime hydrolysis. #C-terminal His -tagged […]
(§5) VIM-1 was used for kinetic analyses.
(§6) Table S5. Apparent KD curve fitting for the binding of inhibitors (1) and (2) to VIM-2 and […]
(§7) Apparent KD fitting as monitored by 1H CPMG NMR spectra of the signal recovery of thiomandelic acid (50 μM) upon addition of increasing concentrations of 1 and 2 with a final enzyme concentration of 50 μM VIM-2/VIM-5. Assays were conducted in 50 mM Tris-D11 (pH […]
(§8) (also on this page, place not known: K D Tris-D 11 His6-tagged V0 (µM/ s) NN OHO % thiomandelic acid displacement µM % thiomandelic acid displacement) […]

The target of assay [16] is T3, VIM-5. Described as above. As to the method:
as §3, §4, §5, §6, §7, §8
For IC50 VIM-4 (H224, R228) in this document: 10 min preincubation.

`C[C@@H](O)[C@H]1C(=O)N2C(C(=O)O)=C(SCCN=CN)C[C@H]12` [Imipenem]: on VIM-1 [1], the “kcat VIM-1” value amounted to 30 s⁻¹. In addition, the “kcat VIM-38” value at VIM-38 [2] stood at 90 s⁻¹. In addition, the Km at VIM-38 [2] (read-out: Mean Km ± SD VIM-38) was 150 ± 20 µM; at VIM-5 [3] (read-out: Mean Km ± SD VIM-5), 58 µM and 60 µM; on VIM-1 [5] (read-out: Km VIM-1 (previous study)) it was 1.5 µM; in the assay on VIM-2 [6] (read-out: Km VIM-2 (previous study)) it was 10 µM; in the assay with VIM-5 [7] (read-out: Km VIM-5 (previous study)), 12 µM. Moreover, the “kcat VIM-5” value at VIM-5 [3] is 58 s⁻¹ and 60 s⁻¹. In addition, the “fold increase in kcat/Km of VIM-2 compared to VIM-1” value in the assay with VIM-2 [4] was found to be 6 fold. On VIM-1 [5], the “kcat VIM-1 (previous study)” value was 2 s⁻¹. In addition, the “kcat VIM-2 (previous study)” value in the assay on VIM-2 [6] is 9.9 s⁻¹. Also, the “kcat VIM-5 (previous study)” value in the assay with VIM-5 [7] is 3.5 s⁻¹.

For `O=C(N[C@H](Cc1c[nH]c2ccccc12)C(=O)O)c1nc(Cl)c2ccccc2c1O` [compound 1], the concentration for half-maximal inhibition (IC50) at VIM-1 [8] is over 1000 µM; at VIM-2 [9], 90 µM; on VIM-38 [11], 2 µM; at VIM-4 it was 200 µM; on VIM-5 [13], 2 µM. In the assay on VIM-2 [10], the “fold-higher IC50 of VIM-2 than VIM-5 and VIM-38” value is listed as over 40 fold. The “better inhibitor of VIM-38 than VIM-1 (IC50 ratio)” value in the assay with VIM-38 [12] is over 500 fold. The “fold-higher IC50 of VIM-4 than VIM-5 and VIM-38” value on VIM-4 (VIM-4 versus VIM-5 and VIM-38) is given as over 40 fold. Also, the “better inhibitor of VIM-5 than VIM-1 (IC50 ratio)” value with VIM-5 [14] was over 500 fold. Further, the values for the Kd on VIM-2 [15] and on VIM-5 [16] were 180 µM and 140 µM, respectively.

Turning to `O=C(N[C@@H](Cc1c[nH]c2ccccc12)C(=O)O)c1nc(Cl)c2ccccc2c1O` [compound 2], the IC50 turned out to be 60 µM on VIM-1 [8]; 300 µM at VIM-2 [9]; 80 µM against VIM-38 [11]; 600 µM on VIM-4; 50 µM at VIM-5 [13]. Besides, the Kd on VIM-2 [15] is 330 µM; on VIM-5 [16] it was 180 µM.
